Assay results: patent US8235974B2, “Method for hair removal” (Ecole Polytechnique Federale de Lausanne (EPFL), priority 2001, dated 2012)

Key:
[1] = test system: sheep; settings: light irradiation about 8 to 10 hours later, 600 to 700 nm; cited from earlier work
[2] = test system: skin area; settings: applied 15 to 25 hours, pulsed red light, cited from earlier work
[3] = test system: PpIX fluorescence in human forearm or leg skin areas (hair follicle vs epidermis); experiment: Macroscopic PpIX fluorescence imaging of skin after topical photosensitizer precursor; ratio r hair follicle/hairless epidermis; type: in vivo
Description: The photosensitizer precursors were formulated within standard excipients of the European Pharmacopoeia, namely unguentum leniens (UL) and unguentum hydrophilicum anionicum (UH); for some essays, the photosensitizer precursors were suspended either in pure glycerol (GLY) or in pure diethylene glycol monoethyl ether (DGME).
The formulations were administered topically on the forearm or the leg using the Tegaderm™ transparent dressing. This dressing enables the transport of water and oxygen according to the specifications of the manufacturer. This dressing was removed and the remaining formulation cleaned with pure ethanol just before the measurements performed at one single point in time. For the pharmacokinetic measurements, this dressing was removed after four hours. This removal of the Tegaderm™ during the remaining time course of the measurements induced negligible minimal alterations of the measurements due to the excellent transparency of this dressing at the wavelengths of interest.
A fluorescence imaging system illustrated by FIG. 9 was developed to assess the extent and level of PpIX production in “macroscopic” samples (parts of the human body such as: forearm, leg, back, etc.). As the goal is to assess the relative level of PpIX in the hair follicle of these samples, red light at 635 nm was chosen as PpIX fluorescence excitation wavelength. It is indeed well known that red light penetrates deeper in the cutaneous tissues than green and violet light, the later two wavelengths corresponding to larger PpIX absorption peaks (see the PpIX fluorescence excitation and emission spectra presented on the right side in FIG. 9).
As presented in the schematic diagram presented in FIG. 9, this fluorescence imaging system involves a modified 300 W D-light source 1 (Xe arc lamp from Storz, Tuttlingen, Germany) equipped with a red bandpass filter (635 nm, 20 nm FWHM; Chroma, USA). This fluorescence excitation light is coupled in a Storz 4 mm diameter light guide 2. The output of this light guide is imaged on the tissue sample 3 with a projection objective 4 (Nikon, Japan; AF Nikkor; 1:1.4 D/50 mm) to generate a homogenous spot of 2.5 cm in diameter with an irradiance of 2 mW/cm^2 at 635 nm. The distance between this projection objective 4 and the sample 3 is 25 cm. Therefore, the light beam illuminating the sample can be considered as parallel. The fluorescence is collected by another objective 5 (Fujinon, Japan; TV zoom lens; 1:1.2/12.5-75 mm; Type H6X12.5R-MD3) through a longpass filter 6 (Schott, Germany; RG665) and the image detected by a scientific CCD camera (752×582 pixels CF 8/1 Kappa, Gleichen, Germany) equipped 7 with an image intensifier (Proxifier BV 256-2FcZ-CH, Proxitronic, Bensheim, Germany). The images are captured by the 8-bits camera frame grabber and saved on the computer 8 with the “Kappa Imagebase-control” software. Image treatment is carried out using the IPLab imaging software. The spatial resolution of the complete setup has been measured with an USAF resolution target and the value we obtained in the sample plan is 3 lp/mm, the size of the image detected by the camera being 3×4 cm^2. A reference sample has been designed to enable a comparison of the relative fluorescence brightness between samples investigated at different times. This reference consists of a ruby disk (diameter: 12 mm; thickness: 1.02 mm; Type 8Sp3, Hans Stettler SA, Lyss, Switzerland) covered with a neutral density filter (T=2.27%) so that the signal obtained with this reference sample corresponds to the typical tissue fluorescence detected in our conditions.
The images were analyzed using the NIH image software. The method consisted in identifying the location of an area corresponding to: 1) one typical hair follicle and 2) epidermis presenting no skin appendages. The number of pixels involved in such an area was typically 100. […]

[4] = test system: skin area (hairs, follicles, epidermis); experiment: Irradiation of treated skin areas at 635 nm: hair removal and skin reaction; type: in vivo, human; settings: pure, applied 195 minutes; irradiated 200 minutes later, 30 J/cm^2 at 65 mW/cm^2 (FIG. 7A)
Description: The irradiation step of the skin areas treated by means of the various photosensitizer precursor compositions described above was conducted as follows: The irradiation of the skin was performed at 635 nm with an argon ion (Spectra-Physics, model 2020) pumped dye laser (Spectra-Physics, model 375B). The light was coupled in a frontal FD1 light distributor from Medlight SA (Ecublens, Switzerland). This distributor generated a uniform 2 cm in diameter spot. The typical irradiances and light doses were 60 to 130 mW/cm^2 and 30 to 130 J/cm^2, respectively. The irradiance was checked before and after all treatments. The light power delivered by the light distributor was determined using a power meter from Spectra-Physics (Model 407A, Mountain view, Calif., USA).
Thereafter, the skin was cleaned as indicated above. 15 minutes later, the skin area was irradiated with a light dose of 127 J/cm^2 at an irradiance of 127 mW/cm^2.
A first area was submitted to light irradiation after a waiting time equal to 200 minutes with a light dose of 61 J/cm^2 at an irradiance of 42.4 mW/cm^2. […] A second area was submitted to light irradiation 30 minutes after the end of drug administration. The light dose was 130 J/cm^2 at an irradiance of 56.6 mW/cm^2.
Thereafter, the skin was cleaned and irradiated 200 minutes later with a light dose of 30 J/cm^2 at an irradiance of 65 mW/cm^2.

[5] = three hours administration, 20% in DGME
[6] = three hours administration, 20% in glycerol

Structure (SMILES) | side effects in treated skin areas of test animals [1] | wool growth [1] | hair removal ([2]; treatment repeated about 4 to 8 times) | duration of sunburn like side effects after an irradiation [2] [days] | ratio r (hair follicle/epidermis fluorescence) [3, 5] | ratio r (hair follicle/epidermis fluorescence) [3, 6] | ratio r (fluorescence brightness hair follicle area / hairless epidermis area) ([3]; three hours after administration, in unguentum hydrophilicum) | skin reaction one day after irradiation [4] | ratio r (hair follicle/epidermis fluorescence) ([3]; pure, lower leg, 3 hours, normal skin temperature of 31° C.) | ratio r (hair follicle/epidermis fluorescence) ([3]; pure, lower leg, three hours at 41° C. (electric blanket)) | kinetics of the hair follicle/epidermis fluorescence ratio ([3]; 20% in Unguentum Leniens, one volunteer, 0 to 1380 minutes (FIG. 10))
Cl.NCC(=O)CCC(=O)O [ALA, 5-amino-levulinic acid hydrochloride] | edema, discoloration and crusting | significantly reduced | effective | 2 to 20 | 2.21 | 1.62 | 1.46 | – | – | – | –
CCOCCOCCOC(=O)CCC(=O)CN [ALA-DGME, diethylene glycol monoethyl ether 5-amino-levulinate] | – | – | – | – | 3.24 | 2.51 | – | a clear reaction selectivity between the skin areas around follicles and the epidermis in bulk | 3.47 | 4.72 | –
COC(=O)CCC(=O)CN [m-ALA, methyl ester of ALA] | – | – | – | – | – | – | – | – | – | – | decreases rapidly during the first hours and tends to unity for longer times
